According to patent US20210179940A1, “WIDE TEMPERATURE RANGE AND HIGH PHOTOCHEMICAL STABILITY SMECTIC LIQUID CRYSTAL COMPOSITIONS WITH A MONOLAYER SMECTIC A PHASE (SMA1), METHOD OF OBTAINING THEREOF AND DEVICES UTILIZING THEREOF” (WOJSKOWA AKADEMIA TECHNICZNA, priority 2017, published 2021):
Where two headings read alike, the source gives them in different places.

Legend:
[1] = conductivity of doped smectic A composition 18 in 15 μm cell; format: physicochemical; conditions: prepared in fluorobenzene, 100 Hz, RT
Text: The glass cells with a gap of 15 μm filled with the liquid crystal composition were used to measure conductivity and such a parameters of the DS effect as threshold voltage and saturation voltage. […] The orienting layer providing a homeotropic orientation of the molecular director of the smectic composition was obtained using a thin layer of SE1211 (by Nissan Chem.) polyimide, which was deposited on ITO electrodes with a spincoating method, then dried and cured. The testing cells were filled with the liquid crystals composition from the isotropic phase, and they were cooled to the room temperature (RT) and closed.
The components were carefully mixed and then heated to temperature of 90° C. to evaporate the solvent. Then heating was continued under lower pressure (at 0.2 mmHg) for the total removal of the solvent and the composition was carefully mixed by shaking it at the isotropic state. […]

[2] = resistivity of fluorobenzene solutions of ionic compounds (bridge method); format: physicochemical; conditions: for resistivity 10 kHz / resistivity 50 Hz: solution in C6H5F, 25° C.
Description: The resistivity of the solution was measured by the bridge method using a Wyne Kerr Precision Component Analyzer 6425 and the measuring cells with electrodes of active area of 12.7 mm×12.7 mm. The electrodes were made of ITO. No orienting layers were deposited. The cell formed with two substrates with electrodes mentioned above was filled with the solution by capillary forces. The gap between electrodes was approx. 14.6 μm.

[3] = solubility of ionic compounds in fluorobenzene
Description: Fluorobenzene was used as solvent because it is chemically similar to the liquid crystalline composition used here.
The examination was made in the following way: always the same mole amount of a ionic compound (0.00004 mol) was placed in 2 cm^3 of fluorobenzene. The mixture was mixed to dissolve the compound or to obtain equilibrium between the saturated solution and the solid. When a part of the compound was dissolved only, the sample of the saturated solution was taken (0.5 ml). The solvent was evaporated to dryness, the rest was weighted. Knowing the residue amount, the solubility was calculated.

[4] = conductivity of doped smectic A composition 21 in 15 μm cell; format: physicochemical; conditions: RT
Text: The glass cells with a gap of 15 μm filled with the liquid crystal composition were used to measure conductivity and such a parameters of the DS effect as threshold voltage and saturation voltage. Transparent electrodes were formed from indium-tin oxide (ITO) of specific resistivity 100 Ohm/cm^2 and with surface 1.27×1.27 cm^2. The orienting layer providing a homeotropic orientation of the molecular director of the smectic composition was obtained using a thin layer of SE1211 (by Nissan Chem.) polyimide, which was deposited on ITO electrodes with a spincoating method, then dried and cured. The testing cells were filled with the liquid crystals composition from the isotropic phase, and they were cooled to the room temperature (RT) and closed.
In Table 6 the properties of the composition 21 doped with an amidinium salt or potassium complex of a crown ether are compared. The composition 21 has the phase sequence Cr-SmA1-N-Iso and the higher value of dielectric anisotropy than composition 18.

[5] = solubility in organic solvents noted at synthesis; format: physicochemical; conditions: solvents named in the value
[6] = composition 18, dopant 8.78 · 10^−3 mol/kg
[7] = composition 21, dopant 6.58 · 10^−3 mol/kg, f = 100 Hz
[8] = composition 18, dopant 6.58 · 10^−3 mol/kg

Compound	conductivity σ [1, 6]	resistivity 10 kHz [2]	resistivity 50 Hz [2]	solubility in C6H5F [3]	solubility in C6H5F ([3]; fluorobenzene, 25° C.) [mol/dcm^3]	also measured
1-hexadecyl-1,8-diazabicyclo[5,4,0]undec-7-enium 3,5-difluoro-4-cyanophenolate [II.16n]	1.8 · 10^−8 Ohm^−1cm^−1	3.8 · 10^5 Ohm · cm	3.9 · 10^5 Ohm · cm	>0.02 mol/dcm^3		resistivity of I.16b, times higher than that of the compound ([2]; solution in fluorobenzene): 140 times
1-hexadecyl-1,8-diazabicyclo[5.4.0]undec-7-enium 3,4-difluorophenolate [II.16k]				>0.02 >0.02 >0.02 >0.02 mol/dcm^3		
1-hexadecyl-1,8-diazabicyclo[5.4.0]undec-7-enium 4-dodecylbenzenesulphonate [II.16g12]	1.1 · 10^−9 Ohm^−1cm^−1	1.9 · 10^6 Ohm · cm	2.1 · 10^6 Ohm · cm		>0.02	specific conductivity σ [4, 7]: 7.42 · 10^−10 Ohm^−1cm^−1
CCCCCCCCCCCCCCCC[N+](C)(C)C.[Br-] [I.16b, hexadecyltrimethylammonium bromide, reference compound]		5.2 · 10^7 Ohm · cm	5.0 · 10^7 Ohm · cm	0.00274 mol/dcm^3		solubility compared with the ionic compounds of the disclosure [3]: lower at least ten times
CC[N+]12CCCCCC1=NCCC2.[Br-] (stereo not shown) [II.2b, 1-ethyl-1,8-diazabicyclo[5.4.0] undec-7-enium bromide]					0.0077	conductivity σ [1, 8]: 3.0 · 10^−9 Ohm^−1cm^−1; solubility [5]: well soluble in ethanol and ethyl acetate
CCCCCCCCCCCCCCCC[N+]1=C2CCCCCN2CCC1 [II.16b, 1-hexadecyl-1,8-diazabicyclo[5.4.0]undec-7-enium bromide]				>0.02 >0.02 >0.02 >0.02 mol/dcm^3		solubility [5]: well soluble in methanol and chloroform
CCCCCCCCCCCCCCCC[N+]1=C2CCCCCN2CCC1 [II.16c, 1-Hexadecyl-1,8-diazabicyclo[5.4.0]undec-7-enium chlorate (VII)]	4.6 · 10^−10 Ohm^−1cm^−1	0.84 · 10^6 Ohm · cm	1.0 · 10^6 Ohm · cm	>0.02 >0.02 >0.02 >0.02 mol/dcm^3		solubility [5]: well soluble in methanol and ethyl acetate
CCCCCCCCCCCCCCCC[N+]1=C2CCCCCN2CCC1 [II.16d, 1-hexadecyl-1,8-diazabicyclo[5.4.0]undec-7-enium 1,1,1-trifluoromethanesulphonate]				>0.02 >0.02 >0.02 >0.02 mol/dcm^3		
C1COCCOCCOCCOCCOCCO1.CCCCCCCCCCCCc1ccc(S(=O)(=O)[O-])cc1.[K+] [III.g12, complex of 18-crown-6 ether with potassium 4-dodecylbenzenesulphonate]					>0.02	specific conductivity σ ([4]; composition 21, 0.1 wt % dopant + 0.3 wt % stabilizer of formula 29, f = 100 Hz): 7.0 · 10^−9 Ohm^−1cm^−1
C1COCCOCCOCCOCCOCCO1.[K+].[O-]c1ccc(F)c(F)c1 [IIIk, complex of 18-crown-6 ether with potassium 3,4-difluorophenolate]					> 0.02	conductivity σ [1, 8]: 2.7 · 10^−9 Ohm^−1cm^−1; conductivity σ ([1]; composition 18, dopant 6.58 · 10^−3 mol/kg, listed as III.k): 2.7·10^−9 Ohm^−1cm^−1
CCCCCCCCCCCCc1ccc(S(=O)(=O)[O-])cc1.[K+].c1ccc2c(c1)OCCOCCOc1ccccc1OCCOCCO2 [IVg12, Complex of dibenzo-18-crown-6 ether with potassium 4-dodecylbenzenesulphonate]	2.7 · 10^−10 Ohm^−1cm^−1	4.5 · 10^5 Ohm · cm	6.0 · 10^5 Ohm · cm		>0.02	specific conductivity σ [4, 7]: 4.68 · 10^−10 Ohm^−1cm^−1
CCCCCCCCc1ccc([O-])cc1.[K+].c1ccc2c(c1)OCCOCCOc1ccccc1OCCOCCO2 [IVh8, complex of dibenzo-18-crown-6 ether with potassium 4-octylphenolate]	1.4 · 10^−10 Ohm^−1cm^−1				0.0107	
[K+].[O-]c1ccc(F)c(F)c1.c1ccc2c(c1)OCCOCCOc1ccccc1OCCOCCO2 [IVk, complex of dibenzo-18-crown-6 ether with potassium 3,4-difluorophenolate]	4.1 · 10^−9 Ohm^−1cm^−1	0.95 · 10^6 Ohm · cm	1.1 · 10^6 Ohm · cm		> 0.02	
N#Cc1c(F)cc([O-])cc1F.[K+].c1ccc2c(c1)OCCOCCOc1ccccc1OCCOCCO2 [IVn, complex of dibenzo-18-crown-6 ether with potassium 3,5-difluoro-4-cyanophenolate]	8.1 · 10^−9 Ohm^−1cm^−1	4.6 · 10^5 Ohm · cm	4.2 · 10^5 Ohm · cm		>0.02	conductivity σ ([1]; composition 18, dopant 2.19 · 10^−3 mol/kg): 2.19 · 10^−9 Ohm^−1cm^−1
complex of 18-crown-6 ether with potassium bromide [IIIb]						conductivity σ [1, 8]: 1.1 · 10^−9 Ohm^−1cm^−1
complex of 18-crown-6 ether with sodium dodecyl-1-sulphonate [V.e12]						conductivity σ [1, 8]: 3.7 · 10^−10 Ohm^−1cm^−1
complex of dibenzo-18-crown-6 ether with potassium bromide [IVb]						conductivity σ [1, 8]: 2.2 · 10^−10 Ohm^−1cm^−1
complex of dibenzo-18-crown-6 ether with potassium chlorate (VII) [IVc]	1.5 · 10^−10 Ohm^−1cm^−1	2.9 · 10^7 Ohm · cm	4.2 · 10^7 Ohm · cm		< 0.002	resistivity ([2]; solution in fluorobenzene, frequency not stated): 4.2·10^7 Ohm·cm
